Experimental data taken from PubChem BioAssay (NCI).
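Briefly, cells in 96-well plates were exposed to five compound concentrations for 48 h, and endpoints were estimated by linear interpolation. GI50 is the concentration that inhibits growth by half. At the TGI there is no net growth.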

Assays:
Assay in all cases: growth of human tumour cells (NCI), 48 h
[1] = test system: CAKI-1 renal
[2] = test system: UO-31 renal
[3] = test system: OVCAR-5 ovarian
[4] = test system: HCC-2998 colon
[5] = test system: NCI-H460 lung
[6] = test system: SW-620 colon
[7] = test system: SNB-75 CNS
[8] = test system: SK-MEL-2 melanoma
[9] = test system: ACHN renal
[10] = test system: TK-10 renal

| SMILES | TGI [1] [µM] | TGI [2] [µM] | TGI [3] [µM] | TGI [4] [µM] | TGI [5] [µM] | TGI [6] [µM] | TGI [7] [µM] | TGI [8] [µM] | TGI [9] [µM] | TGI [10] [µM] | GI50 [9] [µM] | GI50 [1] [µM] | GI50 [2] [µM] | GI50 [3] [µM] | GI50 [4] [µM] | GI50 [5] [µM] | GI50 [6] [µM] | GI50 [10] [µM] | GI50 [7] [µM] | GI50 [8] [µM] |
| --- | --- | --- | --- | --- | --- | --- | --- | --- | --- | --- | --- | --- | --- | --- | --- | --- | --- | --- | --- | --- |
| Cc1c2ccnc(-c3ccccc3)c2cc2c1[nH]c1ccccc12 | 6.96 | 4.29 | 13.8 | 13.2 | 7.36 | 46.9 | 8.16 | 7.3 |  |  |  |  |  |  |  |  |  |  |  |  |
| O=C(CSCC(=O)N/N=C/c1cccc(OCc2ccccc2)c1)N/N=C/c1cccc(OCc2ccccc2)c1 | > 100 | > 100 | > 100 | > 100 | > 100 | > 100 | > 100 | > 100 | > 100 | > 100 |  |  |  |  |  |  |  |  |  |  |
| O=C(O)c1ccccn1 | > 100 | > 100 | > 100 |  | > 100 | > 100 | > 100 | > 100 | > 100 | > 100 |  |  |  |  |  |  |  |  |  |  |
| CCOC(=O)c1c2c(c(O)c3ccccc3c(O)n(-c3ccc(C)cc3)c1C)C(=O)C=CC2=O | 43.3 | > 100 | > 100 | 36.9 | 84.6 | 51.5 | 43.6 | 64.7 | 38.4 | 57.2 |  |  |  |  |  |  |  |  |  |  |
| COc1ccc(-n2c3c(c4cc(O)ccc42)C(=O)c2ccccc2C3=O)cc1 | > 100 | > 100 | > 100 |  | > 100 | > 100 |  | > 100 | 56.7 | 31.1 |  |  |  |  |  |  |  |  |  |  |
| NCS(=O)(=O)O | > 100 | > 100 | > 100 | > 100 | > 100 | > 100 | > 100 | > 100 | > 100 | > 100 |  |  |  |  |  |  |  |  |  |  |
| COc1cc2c(cc1OC)C(Cl)C(c1ccc(Cl)cc1)=C2Cl (configuration not stated) | 40.3 | 32.6 |  |  | 29.8 | 52 | 36.2 | 36.3 | 30.1 | 43.4 |  |  |  |  |  |  |  |  |  |  |
| C[C@@H]1CC[C@H]2C(COC/C=C/COCC3=C(C(F)(F)F)O[C@@H]4O[C@@]5(C)CC[C@H]6[C@H](C)CC[C@@H]3[C@@]46OO5)=C(C(F)(F)F)O[C@@H]3O[C@@]4(C)CC[C@@H]1[C@]32OO4 |  | > 100 | > 100 | > 100 | > 100 | > 100 | > 100 | > 100 | 0.753 | > 100 | 0.0468 | 0.158 | 0.786 | 0.0175 | 0.472 | 0.0226 | 0.0101 | 0.036 | 12.7 | 0.387 |
| O=C(CC1(O)C(=O)Nc2ccc(Br)cc21)c1ccc(C(=O)NCC2CCC3(CC2)OOC2(CCCCC2)OO3)cc1 (configuration not stated) | 31.2 |  | 63.8 | 37.6 | 30.2 | 13 |  | 9.23 | 5.38 | 11.9 | 2.02 | 13.5 |  | 13.8 | 12.7 | 3.37 | 2.76 | 3.71 |  | 2.92 |
| CN(C)c1ccc2nc3c(C(=O)O)cc(=O)c(O)c-3oc2c1 | > 100 | 80.1 | > 100 |  | 66 | > 100 | 60 | 40.2 | > 100 | 47.5 |  |  |  |  |  |  |  |  |  |  |
| COc1ccc(CNc2nc(NCc3ccc(OC)cc3)nc(NC(C)C)n2)cc1 | 66.4 | > 100 | 81.9 | 64.8 | 17 | > 100 | > 100 | 44.2 | 59.1 | 70.4 |  |  |  |  |  |  |  |  |  |  |
| CN(C)c1ccc(C2CC(=O)C(C#N)=C(c3ccccc3)NN2C)cc1 (configuration not stated) | > 100 |  | > 100 | > 100 | 36.9 | > 100 | 7.59 | 57.2 | > 100 | > 100 |  |  |  |  |  |  |  |  |  |  |
| COc1cccc(-c2cccc(SC)n2)n1 | > 100 | > 100 | > 100 | 75.5 | > 100 | > 100 | > 100 | > 100 | > 100 | > 100 |  |  |  |  |  |  |  |  |  |  |
| CCOC(=O)C1=C(C)N(C)C(=S)NC1c1cccc(O)c1 (configuration not stated) | > 100 | > 100 | > 100 | 92.6 | > 100 | > 100 | > 100 | 97.2 | > 100 | > 100 |  |  |  |  |  |  |  |  |  |  |
| CC[C@H](Nc1nc(N)nc(N)c1Cl)c1nc2cccc(NCc3ccc(C(=O)NO)cc3)c2c(=O)n1-c1ccccc1 | 5 |  | 3.36 | 3.22 | 4.43 | 4.71 |  | 5.27 | 4.2 | 6.63 | 1.98 | 2 |  | 1.61 | 1.62 | 1.94 | 1.63 | 2.02 |  | 2.02 |
| CCN(CC)Cc1ccc2cccnc2c1O | > 100 | > 100 | 45.5 | 59.7 | 19.8 | > 100 | 12.7 | 80.1 | > 100 | 33.1 |  |  |  |  |  |  |  |  |  |  |
| Cc1ccc(C)c(/C(=N\N=C(N)N)C2CC2)c1 | > 100 | > 100 | > 100 | 35.4 | 47.9 | > 100 | > 100 | > 100 | > 100 | > 100 |  |  |  |  |  |  |  |  |  |  |
| Oc1cc(O)cc(/C=C/c2ccc(O)c(O)c2)c1 | > 30.8 | 39.3 | 20.7 | 34.4 | 60.5 | > 51.8 | 51.7 | 16 |  |  |  |  |  |  |  |  |  |  |  |  |
| CC(C)CNc1nc(N)[nH]c(=O)c1NC=O | > 100 | > 100 | > 100 | > 100 | > 100 | > 100 | > 100 | > 100 | > 100 | > 100 |  |  |  |  |  |  |  |  |  |  |
| c1ccc([C@@H]2N[C@@]3(CO[Si](c4ccccc4)(c4ccccc4)c4ccccc4)CC[C@H]4CN[C@@H]2[C@H]43)cc1 | 25.4 | 22.8 | 31 | 3.05 | 25 | 11.7 |  | 35.3 | 26.6 | 30.5 |  |  |  |  |  |  |  |  |  |  |
| O=C1c2ccccc2C(=O)c2c(NCCNC(=O)C3CCCN3)ccc(NCCNC(=O)C3CCCN3)c21 (configuration not stated) | > 100 | > 100 | > 100 | > 100 |  | > 100 | > 100 | > 100 | > 100 | > 100 |  |  |  |  |  |  |  |  |  |  |
| Cc1ncc(CO)c(CN)c1O | > 100 | > 100 | > 100 | > 100 | > 100 | > 100 |  | > 100 | > 100 | > 100 |  |  |  |  |  |  |  |  |  |  |
| COc1cc2c(cc1OC)C1C(O)C(OC)C=C3CC[N+](C)(C2)C31 (configuration not stated) | > 100 | > 100 | > 100 | > 100 | > 100 | > 100 | > 100 | > 100 | > 100 | > 100 |  |  |  |  |  |  |  |  |  |  |
| C[C@H]1CCC/C=C/[C@@H]2C[C@H](O)C[C@H]2[C@H](O)[C@@H](S(=O)CCN)CC(=O)O1 (some centres not stated) |  | 0.446 |  | 22.3 | 0.0743 |  | > 25.1 |  | 2.84 | 4.19 | 0.121 | 0.0979 | 0.0269 | 0.0479 | 0.252 | 0.0119 | 0.0576 | 0.0851 | < 0.0231 | 0.111 |
| Cn1cnc2c(OCC3CCCCC3)nc(N)nc21 | > 100 | > 100 | > 100 | > 100 | > 100 | > 100 | > 100 | > 100 | > 100 | > 100 |  |  |  |  |  |  |  |  |  |  |
| CN(C)CCNC(=O)c1cccc2nc3c4ccccc4c4ccccc4c3nc12 | 47.7 | 22.9 | 14.2 | 11.5 | 2.35 | 6.59 | 8.85 | 8.24 | 12.4 | 9.86 |  |  |  |  |  |  |  |  |  |  |
| O=C(c1cc(Br)ccc1O)c1cc(Br)ccc1O | 32.2 | 27.4 | 33.3 | 33.2 | 32.1 | 30.6 | 29.9 | 30.1 | 29.9 | 33 |  |  |  |  |  |  |  |  |  |  |
| COc1cc2ccc1-c1cc(ccc1O)CC1c3cc4c(cc3CCN1C)Oc1c(OC)cc3c(c1O4)C(C2)N(C)CC3 (configuration not stated) | 5.79 | 3.27 | 8.86 | 3.06 | 3.23 | 3.31 | 3.52 | 3.38 | 3.74 | 24.7 |  |  |  |  |  |  |  |  |  |  |
| C=CCNC(=O)/C(Cc1cc(Br)c(OC)c(Br)c1O)=N\O | 33.7 | 15.6 | 34.4 | 14.2 | 15.9 | 26.4 |  | 44.5 | > 100 | 64.8 |  |  |  |  |  |  |  |  |  |  |
